The results in this text go back to ChEMBL document CHEMBL1135882, “Synthesis and biological evaluation of 2-substituted 3beta-tolyltropane derivatives at dopamine, serotonin, and norepinephrine transporters” (J Med Chem, 2002).

Molecules are shown by their SMILES.

For assay [1], the species on record is Rattus norvegicus. The assay is described as follows: Ability to inhibit [3H]dopamine uptake was measured in a chopped tissue assay. The class given is functional, organism-based.
The subject of assay [2] is Rattus norvegicus. The assay is described as follows: Percent maximum effect at 27.0 mmol/kg dose that causes compound-appropriate response in rats, trained to discriminate cocaine. It counts as functional.
For assay [3], the target named is Sodium-dependent dopamine transporter (Rattus norvegicus, UniProt P23977). The assay can be described thus: Affinity for dopamine transporter was assessed by the ability to displace [3H]WIN-35428 from rat caudate-putamen tissue. The class given is tissue-based.
Sodium-dependent dopamine transporter, sequence (P23977 whole entry): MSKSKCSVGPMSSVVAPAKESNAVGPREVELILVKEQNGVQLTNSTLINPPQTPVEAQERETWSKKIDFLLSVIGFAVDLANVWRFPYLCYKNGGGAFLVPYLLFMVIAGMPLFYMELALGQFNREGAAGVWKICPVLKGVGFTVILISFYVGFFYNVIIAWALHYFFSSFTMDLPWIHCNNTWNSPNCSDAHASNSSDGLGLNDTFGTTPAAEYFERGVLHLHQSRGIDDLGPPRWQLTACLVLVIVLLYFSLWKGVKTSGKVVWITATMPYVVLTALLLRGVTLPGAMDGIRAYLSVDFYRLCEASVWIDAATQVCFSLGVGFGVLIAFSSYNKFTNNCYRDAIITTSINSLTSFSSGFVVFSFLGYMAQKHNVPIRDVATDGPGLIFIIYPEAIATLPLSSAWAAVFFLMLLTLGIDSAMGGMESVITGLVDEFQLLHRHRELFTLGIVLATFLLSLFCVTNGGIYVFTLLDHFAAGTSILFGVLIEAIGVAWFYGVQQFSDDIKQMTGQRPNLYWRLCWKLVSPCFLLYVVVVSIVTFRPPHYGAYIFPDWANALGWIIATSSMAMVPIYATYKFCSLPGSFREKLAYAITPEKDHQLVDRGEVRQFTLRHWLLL
Assay [4] concerns the target Sodium-dependent serotonin transporter (Rattus norvegicus, UniProt P31652). The assay is described as follows: Binding affinity for serotonin transporter is assessed from the ability to displace [3H]citalopram from rat brain.
Assay [5] is filed under the species Rattus norvegicus. The assay can be described thus: Effective dose that causes 50 percent of compound-appropriate response in rats, trained to discriminate cocaine; Value ranges from (9.07-256), effect is nonsignificant at this dose. The class given is functional.
Assay [6] has as its target Norepinephrine transporter (Rattus norvegicus, UniProt Q9WTR4). The assay is described as follows: Binding affinity for Norepinephrine transporter is assessed from the ability to displace [3H]nisoxetine from rat frontal cortex. It counts as tissue-based.
Assay [7] is filed under the species Rattus norvegicus. The assay can be described thus: Effective dose that causes 50 percent of compound-appropriate response in rats, trained to discriminate cocaine; NS means Nonsignificant linear regression. It counts as functional, organism-based.
In assay [8] the test system is Rattus norvegicus. The assay can be described thus: Percent maximum effect at 2.69 mmol/kg dose that causes compound-appropriate response in rats, trained to discriminate cocaine. The class given is functional.
For assay [9], the system named is Rattus norvegicus. The assay is described as follows: Percent maximum effect at 37.7 mmol/kg dose that causes compound-appropriate response in rats, trained to discriminate cocaine. It counts as functional.
For assay [10], the species on record is Rattus norvegicus. The assay can be described thus: Effective dose that causes 50 percent of compound-appropriate response in rats, trained to discriminate cocaine; Value ranges from (22-51.4), effect is nonsignificant at this dose. It counts as functional.
For assay [11], the system named is Rattus norvegicus. The assay can be described thus: Percent maximum effect at 39.0 mmol/kg dose that causes compound-appropriate response in rats, trained to discriminate cocaine. The class given is functional.
Assay [12] concerns Rattus norvegicus. The assay can be described thus: Percent maximum effect at 89.3 mmol/kg dose that causes compound-appropriate response in rats, trained to discriminate cocaine. It counts as functional.
The species entered for assay [13] is Rattus norvegicus. The assay can be described thus: Effective dose that causes 50 percent of compound-appropriate response in rats, trained to discriminate cocaine; Value ranges from (17.1-1.22)x10E5, effect is nonsignificant at this dose. The class given is functional.
For assay [14], the system named is Rattus norvegicus. The assay is described as follows: Percent maximum effect at 45.7 mmol/kg dose that causes compound-appropriate response in rats, trained to discriminate cocaine. The class given is functional.
Assay [15] deals with Rattus norvegicus. The assay is described as follows: Percent maximum effect at 54.9 mmol/kg dose that causes compound-appropriate response in rats, trained to discriminate cocaine. The class given is functional.

In general, IC50 refers to the concentration at which inhibition is half-maximal. Low values mean inhibition by little substance, high ones a need for much substance. Usually Ki stands for a measure of affinity in units of concentration, obtained from inhibition or displacement. Low readings indicate higher affinity, high ones lower affinity. By ED50 is commonly meant the midpoint of the dose-response relation. Higher therefore signals a need for a large dose.

Sodium-dependent serotonin transporter, sequence (P31652 whole entry): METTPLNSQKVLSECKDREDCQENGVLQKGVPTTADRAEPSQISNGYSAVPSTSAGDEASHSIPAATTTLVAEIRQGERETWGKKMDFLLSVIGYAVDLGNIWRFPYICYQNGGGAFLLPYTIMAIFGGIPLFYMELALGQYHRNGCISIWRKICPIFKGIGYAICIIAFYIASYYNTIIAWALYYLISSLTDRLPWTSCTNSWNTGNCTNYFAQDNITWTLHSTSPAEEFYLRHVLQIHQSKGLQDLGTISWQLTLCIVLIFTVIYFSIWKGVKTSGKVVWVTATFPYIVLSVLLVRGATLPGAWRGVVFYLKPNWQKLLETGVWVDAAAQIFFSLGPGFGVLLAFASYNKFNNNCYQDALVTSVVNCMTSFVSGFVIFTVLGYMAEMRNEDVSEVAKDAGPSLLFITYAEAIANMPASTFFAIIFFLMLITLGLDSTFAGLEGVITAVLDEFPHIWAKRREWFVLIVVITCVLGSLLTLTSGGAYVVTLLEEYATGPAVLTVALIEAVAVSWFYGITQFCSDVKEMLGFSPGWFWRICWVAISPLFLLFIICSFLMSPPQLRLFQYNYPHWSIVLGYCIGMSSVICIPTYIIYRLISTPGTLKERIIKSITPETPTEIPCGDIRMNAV
Norepinephrine transporter, sequence (Q9WTR4 whole entry): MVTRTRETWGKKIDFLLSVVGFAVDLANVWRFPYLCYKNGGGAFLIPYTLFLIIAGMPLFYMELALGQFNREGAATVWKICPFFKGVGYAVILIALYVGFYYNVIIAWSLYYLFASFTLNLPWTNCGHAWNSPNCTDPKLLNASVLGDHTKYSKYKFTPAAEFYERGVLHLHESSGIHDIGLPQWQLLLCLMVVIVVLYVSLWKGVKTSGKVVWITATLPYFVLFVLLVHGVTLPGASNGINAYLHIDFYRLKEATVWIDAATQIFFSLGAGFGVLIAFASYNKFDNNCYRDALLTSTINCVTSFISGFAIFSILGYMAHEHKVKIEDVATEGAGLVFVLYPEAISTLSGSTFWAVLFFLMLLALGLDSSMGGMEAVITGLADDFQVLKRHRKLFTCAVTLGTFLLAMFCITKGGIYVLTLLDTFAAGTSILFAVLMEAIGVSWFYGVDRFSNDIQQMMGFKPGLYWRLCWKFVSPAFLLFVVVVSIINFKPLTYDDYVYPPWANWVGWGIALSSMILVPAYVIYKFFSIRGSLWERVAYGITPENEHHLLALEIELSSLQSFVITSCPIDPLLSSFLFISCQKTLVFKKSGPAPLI

`Cc1ccc(C(=O)C2C(c3ccc(C)cc3)CC3CCC2N3C)cc1` (centres undefined) registered an IC50 in the assay filed under Rattus norvegicus [1] of 82 nM. Besides, the Max effect in the assay with Rattus norvegicus [2] came to 100%. Further, the Ki in assay [3] was 17 nM.

For `Cc1ccc(C2C[C@H]3CCC([C@@H]2CO)N3C)cc1` (some centres undefined), the values for the Ki in [4], in assay [6] and in [3] were 16000 nM, 16800 nM and 3490 nM, respectively. In the assay filed under Rattus norvegicus [5], this compound gave an ED50 of 20600 µmol/kg. The IC50 in the assay listed under Rattus norvegicus [1] came out at 4040 nM. Also, the NS entry in the assay filed under Rattus norvegicus [7] is recorded as “Nonsignificant linear regression”. This compound also showed a Max effect with Rattus norvegicus [8] of 2.96%.

As for `Cc1ccc([C@@H](O)[C@@H]2C3CC[C@H](C[C@@H]2c2ccc(C)cc2)N3C)cc1`, the Ki in assay [4] came out at 70 nM; in assay [6] it was 214 nM; in [3] it was 85 nM. In the assay listed under Rattus norvegicus [1], the IC50 turned out to be 107 nM. The compound further gave a Max effect in the assay with Rattus norvegicus [9] of 66.7%. This compound also registered an ED50 in the assay filed under Rattus norvegicus [10] of 31400 µmol/kg.

In the assay on Rattus norvegicus [11], `Cc1ccc(CC2C(c3ccc(C)cc3)C[C@H]3CCC2N3C)cc1` (some centres undefined) had a Max effect of 82.8%. The Ki in assay [6] came out at 271 nM; in [3], 11 nM. In the assay listed under Rattus norvegicus [1], this compound had an IC50 of 16 nM.

In the assay filed under Rattus norvegicus [1], `Cc1ccc([C@H]2C[C@H]3CC[C@H]([C@@H]2[C@@H](O)c2ccc(C)cc2)N3C)cc1` gave an IC50 of 58 nM. The Ki in [3] was found to be 25 nM.

On to `COC(=O)/C=C/C1C(c2ccc(C)cc2)C[C@H]2CCC1N2C` (some centres undefined), for which the IC50 in the assay listed under Rattus norvegicus [1] came to 311 nM. Moreover, affinity in assay [3] was put at a Ki of 123 nM. Besides, in the assay with Rattus norvegicus [12], the Max effect is 69.9%.

Take `Cc1ccc([C@H]2C[C@H]3CC[C@H]([C@H]2[C@@H](O)c2ccc(C)cc2)N3C)cc1`: the Ki in [4] was determined as 66 nM; in assay [6], 464 nM; in assay [3] it was 14 nM. This compound also showed an ED50 in the assay filed under Rattus norvegicus [13] of 61600 µmol/kg. For the same compound, the Max effect in the assay with Rattus norvegicus [14] turned out to be 97.9%. In addition, in the assay listed under Rattus norvegicus [1], the IC50 is 144 nM.

In turn, `Cc1ccc(C2C[C@H]3CCC(C2CCCO)N3C)cc1` (some centres undefined) displayed a Max effect in the assay on Rattus norvegicus [15] of 93.9%. The same compound came in with an IC50 in the assay listed under Rattus norvegicus [1] of 266 nM. In addition, in assay [3], the Ki was 136 nM.
